Laboratory results published in patent publication US20260184663A1, “INDENE COMPOUNDS, PHARMACEUTICAL COMPOSITIONS THEREOF, AND THEIR THERAPEUTIC APPLICATIONS” (NucMito Pharmaceuticals co. Ltd., priority 2022, published 2026).

Tests used:
Type in all cases: cell-based
[1] = tested on: A431 (epidermoid carcinoma); experiment: Antiproliferative activity (CCK-8 cell viability), A431; conditions: Homo sapiens, 72 h, read-out: Antiproliferative activity in cancerous cells, A431 (inhibition of cell growth); for inhibition at 3.3 µM: A-431, Compound concentration: 3.3 μM; for inhibition at 10 µM: A-431, Compound concentration: 10 μM
Summary of the method: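 A431 epidermoid carcinoma cells grown in DMEM with 10% FBS were plated at 2,000-5,000 cells/well in 96-well plates. After attachment they were exposed to compound at 3.3 μM, 10 μM, or 30 μM for 72 h at 37° C. Viability was then assessed by CCK-8 against DMSO vehicle-treated wells.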

[2] = tested on: SW480 (colon cancer); experiment: Antiproliferative activity (CCK-8 cell viability), SW480; conditions: Homo sapiens, 72 h; for inhibition at 3.3 µM: Compound concentration: 3.3 μM; for inhibition at 3.3 µM / inhibition at 10 µM: read-out: Antiproliferative activity in cancerous cells, SW480 (inhibition of cell growth); for inhibition at 10 µM: Compound concentration: 10 μM
Summary of the method: (§1)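 Cells grown in DMEM (HepG2, SW480), MEM (HeLa) or F-12K (A549), each with 10% FBS, then exposed to compound at 3.3, 10 or 30 μM for 72 h at 37 °C. CCK-8 absorbance at 450 nm; viability expressed as percent of DMSO-treated cells, graded as growth inhibition bands.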

[3] = tested on: HepG2 (liver cancer); experiment: Antiproliferative activity (CCK-8 cell viability), HepG2; conditions: Homo sapiens, 72 h; for inhibition at 3.3 µM: Compound concentration: 3.3 μM; for inhibition at 3.3 µM / inhibition at 10 µM: read-out: Antiproliferative activity in cancerous cells, HepG2 (inhibition of cell growth); for inhibition at 10 µM: Compound concentration: 10 μM
Summary of the method: as §1

[4] = tested on: A549 (lung adenocarcinoma); experiment: Antiproliferative activity (CCK-8 cell viability), A549; conditions: Homo sapiens, 72 h; for inhibition at 3.3 µM: Compound concentration: 3.3 μM; for inhibition at 3.3 µM / inhibition at 10 µM: read-out: Antiproliferative activity in cancerous cells, A549 (inhibition of cell growth); for inhibition at 10 µM: Compound concentration: 10 μM
Summary of the method: as §1

[5] = tested on: HeLa (cervical cancer); experiment: Antiproliferative activity (CCK-8 cell viability), HeLa; conditions: Homo sapiens, 72 h, read-out: Antiproliferative activity in cancerous cells, HELA (inhibition of cell growth); for inhibition at 3.3 µM: Compound concentration: 3.3 μM; for inhibition at 10 µM: Compound concentration: 10 μM
Summary of the method: as §1

[6] = tested on: MDA-MB-231 (breast cancer); experiment: Antiproliferative activity (CCK-8 cell viability), MDA-MB-231; conditions: Homo sapiens, 72 h, read-out: Antiproliferative activity in cancerous cells, MDA-MB-231 (inhibition of cell growth); for inhibition at 3.3 µM: Compound concentration: 3.3 μM; for inhibition at 10 µM: Compound concentration: 10 μM
Summary of the method: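 MDA-MB-231 breast cancer cells, grown in DMEM with 10% FBS, were plated in 96-well plates at 2,000-5,000 cells/well. Once attached, they were exposed to compound and incubated at 37° C. for 72 h. Viability was then measured with CCK-8 (10 μL per well, 4 h at 37° C.) by absorbance at 450 nm, relative to DMSO vehicle wells.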

[7] = tested on: alpha-smooth muscle actin (α-SMA); experiment: Inhibition of TGF-β induced expression of alpha-smooth muscle actin (α-SMA) in CFSC cells (western blot); conditions: compound at 10 μM, TGF-β (10 ng/mL), 24 hours, band intensity vs TGF-β only
Summary of the method: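 Values are percent reduction of α-SMA band intensity relative to cells given TGF-β alone, quantified by Western blot densitometry with β-actin probed. Compound was applied at 10 μM alongside 10 ng/mL TGF-β to serum-free CFSC cultures for 24 h at 37 °C.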

[8] = tested on: B16F10 (malignant melanoma); experiment: Antiproliferative activity (CCK-8 cell viability), B16F10; conditions: Mus musculus, 72 h, read-out: Antiproliferative activity in cancerous cells, B16F10 (inhibition of cell growth); for inhibition at 3.3 µM: B16-F10, Compound concentration: 3.3 μM; for inhibition at 10 µM: B16-F10, Compound concentration: 10 μM
Summary of the method: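 B16F10 melanoma cells grown in DMEM with 10% FBS were plated in 96-well plates at 2,000-5,000 cells/well. After attachment they were exposed to compound in medium for 72 h at 37° C. CCK-8 solution (10 μL) was then added, and after 4 h at 37° C absorbance was read at 450 nm.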

Row | Compound | inhibition at 3.3 µM [1] | inhibition at 10 µM [1] | inhibition at 3.3 µM [2] | inhibition at 10 µM [2] | inhibition at 3.3 µM [3] | inhibition at 10 µM [3] | inhibition at 3.3 µM [4] | inhibition at 10 µM [4] | inhibition at 3.3 µM [5] | inhibition at 10 µM [5] | inhibition at 3.3 µM [6] | inhibition at 10 µM [6] | inhibition at 10 µM [7] | inhibition at 3.3 µM [8] | inhibition at 10 µM [8] | inhibition at 30 µM ([4]; Compound concentration: 30 μM, read-out: Antiproliferative activity in cancerous cells, A549) | inhibition at 30 µM ([2]; Compound concentration: 30 μM, read-out: Antiproliferative activity in cancerous cells, SW480) | inhibition at 30 µM ([3]; Compound concentration: 30 μM, read-out: Antiproliferative activity in cancerous cells, HepG2)
1 | CC1=C(CC(=O)O)c2c(F)cccc2/C1=C\c1ccc(COc2ccccc2)cc1 [B6, (Z)-2-(4-Fluoro-2-methyl-1-(4-(phenoxymethyl)benzylidene)-1H-inden-3-yl)-acetic acid] | < 30% | ≥ 50% | < 30% | < 30% | < 30% | ≥ 50% | 30 to 50% | 30 to 50% | < 30% | ≥ 50% | ≥ 50% | ≥ 50% | > 80% | < 30% | 30 to 50% |  |  | 
2 | CC1=C(CC(=O)O)c2cc(F)cc(F)c2/C1=C\c1cccc(COc2ccccc2)c1 [B7, (Z)-2-(5,7-Difluoro-2-methyl-1-(3-(phenoxymethyl)benzylidene)-1H-inden-3-yl)-acetic acid] | 30 to 50% | ≥ 50% | ≥ 50% | ≥ 50% | 30 to 50% | 30 to 50% | < 30% | 30 to 50% | ≥ 50% | 30 to 50% | ≥ 50% | ≥ 50% | > 80% | < 30% | 30 to 50% |  |  | 
3 | COc1ccc2c(c1)/C(=C\c1cccc(COc3ccccc3)c1)C(C)=C2CC(=O)O [B8, (Z)-2-(6-Methoxy-2-methyl-1-(3-(phenoxymethyl)benzylidene)-1H-inden-3-yl)-acetic acid] | 30 to 50% | ≥ 50% | ≥ 50% | ≥ 50% | 30 to 50% | 30 to 50% | ≥ 50% | ≥ 50% | 30 to 50% | ≥ 50% | < 30% | 30 to 50% | > 80% | < 30% | ≥ 50% |  |  | 
4 | CC1=C(CC(=O)O)c2cccc(F)c2/C1=C\c1cccc(COc2ccccc2)c1 [B9, (Z)-2-(7-Fluoro-2-methyl-1-(3-(phenoxymethyl)benzylidene)-1H-inden-3-yl)-acetic acid] | < 30% | < 30% | < 30% | < 30% | < 30% | < 30% | 30 to 50% | 30 to 50% | < 30% | 30 to 50% | 30 to 50% | 30 to 50% | 50 to 80% | < 30% | ≥ 50% | 30 to 50% |  | 
5 | CC1=C(CC(=O)O)c2ccc(F)cc2/C1=C\c1cccc(COc2ccccc2)c1 [B10, (Z)-2-(6-Fluoro-2-methyl-1-(3-(phenoxymethyl)benzylidene)-1H-inden-3-yl)-acetic acid] | < 30% | ≥ 50% | < 30% | < 30% | 30 to 50% | ≥ 50% | < 30% | ≥ 50% | < 30% | < 30% | 30 to 50% | ≥ 50% | > 80% | < 30% | ≥ 50% |  |  | 
6 | CCc1ccc2c(c1)C(CC(=O)O)=C(C)/C2=C/c1cccc(COc2ccccc2)c1 [B11, (Z)-2-(5-Ethyl-2-methyl-1-(3-(phenoxymethyl)benzylidene)-1H-inden-3-yl)acetic acid] | ≥ 50% | ≥ 50% | ≥ 50% | ≥ 50% | ≥ 50% | ≥ 50% | 30 to 50% | ≥ 50% | < 30% | ≥ 50% | 30 to 50% | ≥ 50% | > 80% | ≥ 50% | ≥ 50% |  |  | 
7 | CC1=C(CC(=O)O)c2cc(C)ccc2/C1=C\c1cccc(COc2ccccc2)c1 [B12, (Z)-2-(2,5-Dimethyl-1-(3-(phenoxymethyl)benzylidene)-1H-inden-3-yl)acetic acid] | ≥ 50% | ≥ 50% | < 30% | < 30% | < 30% | ≥ 50% | 30 to 50% | ≥ 50% | < 30% | ≥ 50% | ≥ 50% | ≥ 50% | > 80% | < 30% | 30 to 50% |  |  | 
8 | CC1=C(CC(=O)O)c2c(F)cccc2/C1=C\c1cccc(COc2ccccc2)c1 [B13, (Z)-2-(4-Fluoro-2-methyl-1-(3-(phenoxymethyl)benzylidene)-1H-inden-3-yl)-acetic acid] | < 30% | 30 to 50% | < 30% | < 30% | < 30% | 30 to 50% | 30 to 50% | 30 to 50% | 30 to 50% | ≥ 50% | ≥ 50% | ≥ 50% | < 30% | 30 to 50% | ≥ 50% |  | 30 to 50% | 30 to 50%
9 | CC1=C(CCC(=O)O)c2ccccc2/C1=C\c1cccc(COc2ccccc2)c1 [B15, (Z)-3-(2-Methyl-1-(3-(phenoxymethyl)benzylidene)-1H-inden-3-yl)propanoic acid] | ≥ 50% | ≥ 50% | ≥ 50% | ≥ 50% | 30 to 50% | ≥ 50% | 30 to 50% | ≥ 50% | 30 to 50% | ≥ 50% | < 30% | ≥ 50% | < 30% | ≥ 50% | ≥ 50% |  |  | 
